Test results as given in patent US20170190671A1, “BIS(ARYL)CATECHOL DERIVATIVES AS HERBICIDES” (E I DU PONT DE NEMOURS AND COMPANY, priority 2014, published 2017).

Columns and labels:
[1] = tested on: waterhemp (common waterhemp, Amaranthus rudis); test: Test C postemergence; type: in vivo; conditions: Amaranthus tuberculatus, post-emergence, Postemergence, scale 0 to 100, read-out: Plant response rating, Waterhemp
Summary of the method: (§1)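 Greenhouse test, preemergence on seeded soil or postemergence on 1- to 4-leaf plants. Response is a visual 0-100 rating versus controls, taken 13-15 days after treatment.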

[2] = tested on: pigweed (Amaranthus retroflexus); test: Test C postemergence; type: in vivo; conditions: Amaranthus retroflexus, post-emergence, 336 h, Postemergence, scale 0 to 100, read-out: Plant response rating, Pigweed
Summary of the method: as §1

[3] = tested on: yellow nutsedge (Cyperus esculentus); test: Test C postemergence; type: in vivo; conditions: Cyperus, post-emergence, 336 h, Postemergence, scale 0 to 100, read-out: Plant response rating, Nutsedge, Yellow
Summary of the method: as §1

wild oat (Avena fatua) = test: Test C postemergence; type: in vivo; conditions: Avena fatua, post-emergence, Postemergence, scale 0 to 100, read-out: Plant response rating, Oat, Wild
Summary of the method: as §1

kochia (Kochia scoparia) = test: Test C postemergence; type: in vivo; conditions: Bassia scoparia, post-emergence, Postemergence, scale 0 to 100, read-out: Plant response rating, Kochia
Summary of the method: as §1

[4] = tested on: galium (catchweed bedstraw, Galium aparine); test: Test C postemergence; type: in vivo; conditions: Galium, post-emergence, 336 h, Postemergence, scale 0 to 100, read-out: Plant response rating, Galium
Summary of the method: as §1

[5] = tested on: chickweed (common chickweed, Stellaria media); test: Test C postemergence; type: in vivo; conditions: Stellaria media, post-emergence, Postemergence, scale 0 to 100, read-out: Plant response rating, Chickweed
Summary of the method: as §1

[6] = tested on: waterhemp (common waterhemp, Amaranthus rudis); test: Test C preemergence; type: in vivo; conditions: Amaranthus tuberculatus, pre-emergence, scale 0 to 100, read-out: Plant response rating, Waterhemp
Summary of the method: as §1

[7] = tested on: oilseed rape (Brassica napus); test: Test C preemergence; type: in vivo; conditions: Brassica napus, pre-emergence, scale 0 to 100, read-out: Plant response rating, Oilseed Rape
Summary of the method: as §1

[8] = tested on: morningglory (Ipomoea coccinea); test: Test C preemergence; type: in vivo; conditions: Ipomoea, pre-emergence, 336 h, scale 0 to 100, read-out: Plant response rating, Morningglory
Summary of the method: as §1

[9] = tested on: giant foxtail (Setaria faberii); test: Test C preemergence; type: in vivo; conditions: Setaria faberi, pre-emergence, 336 h, scale 0 to 100, read-out: Plant response rating, Foxtail, Giant
Summary of the method: as §1

[10] = tested on: ragweed (common ragweed, Ambrosia elatior); test: Test C preemergence; type: in vivo; conditions: Ambrosia artemisiifolia, pre-emergence, 336 h, scale 0 to 100, read-out: Plant response rating, Ragweed
Summary of the method: as §1

[11] = tested on: pigweed (Amaranthus retroflexus); test: Test C preemergence; type: in vivo; conditions: Amaranthus retroflexus, pre-emergence, 336 h, scale 0 to 100, read-out: Plant response rating, Pigweed
Summary of the method: as §1

[12] = tested on: johnsongrass (Sorghum halepense); test: Test C preemergence; type: in vivo; conditions: Sorghum halepense, pre-emergence, 336 h, scale 0 to 100, read-out: Plant response rating, Johnsongrass
Summary of the method: as §1

[13] = tested on: large (Lg) crabgrass (Digitaria sanguinalis); test: Test C preemergence; type: in vivo; conditions: Digitaria sanguinalis, pre-emergence, 336 h, scale 0 to 100, read-out: Plant response rating, Crabgrass, Large
Summary of the method: as §1

corn (Zea mays) = test: Test C preemergence; type: in vivo; conditions: Zea mays, pre-emergence, 336 h, scale 0 to 100
Summary of the method: as §1

[14] = tested on: Italian ryegrass (Lolium multiflorum); test: Test C preemergence; type: in vivo; conditions: Lolium multiflorum, pre-emergence, 336 h, scale 0 to 100, read-out: Plant response rating, Ryegrass, Italian
Summary of the method: as §1

soybean (Glycine max) = test: Test C preemergence; type: in vivo; conditions: Glycine max, pre-emergence, scale 0 to 100, read-out: Plant response rating, Soybean
Summary of the method: as §1

[15] = tested on: winter wheat (Triticum aestivum); test: Test C preemergence; type: in vivo; conditions: Triticum aestivum, pre-emergence, 336 h, scale 0 to 100, read-out: Plant response rating, Wheat
Summary of the method: as §1

[16] = tested on: blackgrass (Alopecurus myosuroides); test: Test C preemergence; type: in vivo; conditions: Alopecurus myosuroides, pre-emergence, 336 h, scale 0 to 100, read-out: Plant response rating, Blackgrass
Summary of the method: as §1

[17] = tested on: velvetleaf (Abutilon theophrasti); test: Test C preemergence; type: in vivo; conditions: Abutilon theophrasti, pre-emergence, scale 0 to 100, read-out: Plant response rating, Velvetleaf
Summary of the method: as §1

[18] = tested on: barnyardgrass (Echinochloa crus-galli); test: Test C preemergence; type: in vivo; conditions: Echinochloa crus-galli, pre-emergence, read-out: Plant response rating, Barnyardgrass
Summary of the method: as §1

`Fc1cnc(Oc2c(F)ccc(F)c2Oc2ncc(F)cn2)nc1` [Compound 29, 2,2′-[(3,6-difluoro-1,2-phenylene)bis(oxy)]bis[5-fluoropyrimidine]] showed a pest or weed control at 31 g/ha ([1]; 31 g ai/ha) of 85%, a pest or weed control at 62 g/ha ([1]; 62 g ai/ha) of 90% and a pest or weed control at 125 g/ha ([1]; 125 g ai/ha) of 95%. The pest or weed control at 31 g/ha ([2]; 31 g ai/ha) was 90%, the pest or weed control at 62 g/ha ([2]; 62 g ai/ha) was 95% and the pest or weed control at 125 g/ha ([2]; 125 g ai/ha) was 90%. It also gave a pest or weed control at 31 g/ha ([3]; 31 g ai/ha) of 0%, a pest or weed control at 62 g/ha ([3]; 62 g ai/ha) of 0% and a pest or weed control at 125 g/ha ([3]; 125 g ai/ha) of 0%. For the same molecule, the pest or weed control at 31 g/ha (wild oat (Avena fatua); 31 g ai/ha) was 5%, the pest or weed control at 62 g/ha (wild oat (Avena fatua); 62 g ai/ha) was 30% and the pest or weed control at 125 g/ha (wild oat (Avena fatua); 125 g ai/ha) was 35%. It also gave a pest or weed control at 16 g/ha (kochia (Kochia scoparia); 16 g ai/ha) of 80%, a pest or weed control at 31 g/ha (kochia (Kochia scoparia); 31 g ai/ha) of 90% and a pest or weed control at 62 g/ha (kochia (Kochia scoparia); 62 g ai/ha) of 90%. For the same molecule, the pest or weed control at 125 g/ha (kochia (Kochia scoparia); 125 g ai/ha) was 95%, the pest or weed control at 16 g/ha ([4]; 16 g ai/ha) was 85% and the pest or weed control at 31 g/ha ([4]; 31 g ai/ha) was 85%. It also gave a pest or weed control at 62 g/ha ([4]; 62 g ai/ha) of 90%, a pest or weed control at 125 g/ha ([4]; 125 g ai/ha) of 98% and a pest or weed control at 16 g/ha ([5]; 16 g ai/ha) of 45%. It also gave a pest or weed control at 31 g/ha ([5]; 31 g ai/ha) of 50%, a pest or weed control at 62 g/ha ([5]; 62 g ai/ha) of 50% and a pest or weed control at 125 g/ha ([5]; 125 g ai/ha) of 65%. The pest or weed control at 31 g/ha ([6]; 31 g ai/ha, preemergence) was 100%, the pest or weed control at 62 g/ha ([6]; 62 g ai/ha, preemergence) was 100% and the pest or weed control at 125 g/ha ([6]; 125 g ai/ha, preemergence) was 100%. For the same molecule, the pest or weed control at 16 g/ha ([6]; Preemergence, 16 g ai/ha) was 100%, the plant injury at 31 g/ha ([7]; 31 g ai/ha, preemergence) was 98% and the plant injury at 62 g/ha ([7]; 62 g ai/ha, preemergence) was 95%. The plant injury at 125 g/ha ([7]; 125 g ai/ha, preemergence) was 95%, the plant injury at 16 g/ha ([7]; Preemergence, 16 g ai/ha) was 95% and the pest or weed control at 31 g/ha ([8]; 31 g ai/ha, preemergence) was 75%. The pest or weed control at 62 g/ha ([8]; 62 g ai/ha, preemergence) was 80%, the pest or weed control at 125 g/ha ([8]; 125 g ai/ha, preemergence) was 85% and the pest or weed control at 16 g/ha ([8]; Preemergence, 16 g ai/ha) was 55%. The pest or weed control at 31 g/ha ([9]; 31 g ai/ha, preemergence) was 80%, the pest or weed control at 62 g/ha ([9]; 62 g ai/ha, preemergence) was 85% and the pest or weed control at 125 g/ha ([9]; 125 g ai/ha, preemergence) was 98%. The pest or weed control at 16 g/ha ([9]; Preemergence, 16 g ai/ha) was 75%, the pest or weed control at 31 g/ha ([10]; 31 g ai/ha, preemergence) was 85% and the pest or weed control at 62 g/ha ([10]; 62 g ai/ha, preemergence) was 85%. For the same molecule, the pest or weed control at 125 g/ha ([10]; 125 g ai/ha, preemergence) was 95%, the pest or weed control at 16 g/ha ([10]; Preemergence, 16 g ai/ha) was 90% and the pest or weed control at 31 g/ha ([11]; 31 g ai/ha, preemergence) was 100%. It also gave a pest or weed control at 62 g/ha ([11]; 62 g ai/ha, preemergence) of 100%, a pest or weed control at 125 g/ha ([11]; 125 g ai/ha, preemergence) of 100% and a pest or weed control at 16 g/ha ([11]; Preemergence, 16 g ai/ha) of 98%. For the same molecule, the pest or weed control at 31 g/ha ([12]; 31 g ai/ha, preemergence) was 70%, the pest or weed control at 62 g/ha ([12]; 62 g ai/ha, preemergence) was 80% and the pest or weed control at 125 g/ha ([12]; 125 g ai/ha, preemergence) was 85%. It also gave a pest or weed control at 16 g/ha ([12]; Preemergence, 16 g ai/ha) of 55%, a pest or weed control at 31 g/ha ([13]; 31 g ai/ha, preemergence) of 95% and a pest or weed control at 62 g/ha ([13]; 62 g ai/ha, preemergence) of 95%. It also gave a pest or weed control at 125 g/ha ([13]; 125 g ai/ha, preemergence) of 98%, a pest or weed control at 16 g/ha ([13]; Preemergence, 16 g ai/ha) of 95% and a Corn plant response rating (crop injury, 0 = no effect, 100 = complete kill) at 31 g/ha (corn (Zea mays); 31 g ai/ha, preemergence) of 15%. The Corn plant response rating (crop injury, 0 = no effect, 100 = complete kill) at 62 g/ha (corn (Zea mays); 62 g ai/ha, preemergence) was 25%, the Corn plant response rating (crop injury, 0 = no effect, 100 = complete kill) at 125 g/ha (corn (Zea mays); 125 g ai/ha, preemergence) was 65% and the Corn plant response rating (crop injury, 0 = no effect, 100 = complete kill) at 16 g/ha (corn (Zea mays); Preemergence, 16 g ai/ha) was 0%. It also gave a pest or weed control at 31 g/ha ([14]; 31 g ai/ha, preemergence) of 15%, a pest or weed control at 62 g/ha ([14]; 62 g ai/ha, preemergence) of 50% and a pest or weed control at 125 g/ha ([14]; 125 g ai/ha, preemergence) of 60%. It also gave a pest or weed control at 16 g/ha ([14]; Preemergence, 16 g ai/ha) of 30%, a plant injury at 31 g/ha (soybean (Glycine max); 31 g ai/ha, preemergence) of 85% and a plant injury at 62 g/ha (soybean (Glycine max); 62 g ai/ha, preemergence) of 90%. For the same molecule, the plant injury at 125 g/ha (soybean (Glycine max); 125 g ai/ha, preemergence) was 90%, the plant injury at 16 g/ha (soybean (Glycine max); Preemergence, 16 g ai/ha) was 70% and the plant injury at 31 g/ha ([15]; 31 g ai/ha, preemergence) was 5%. For the same molecule, the plant injury at 62 g/ha ([15]; 62 g ai/ha, preemergence) was 35%, the plant injury at 125 g/ha ([15]; 125 g ai/ha, preemergence) was 60% and the plant injury at 16 g/ha ([15]; Preemergence, 16 g ai/ha) was 0%. The pest or weed control at 31 g/ha ([16]; 31 g ai/ha, preemergence) was 90%, the pest or weed control at 62 g/ha ([16]; 62 g ai/ha, preemergence) was 90% and the pest or weed control at 125 g/ha ([16]; 125 g ai/ha, preemergence) was 90%. For the same molecule, the pest or weed control at 16 g/ha ([16]; Preemergence, 16 g ai/ha) was 60%, the pest or weed control at 31 g/ha ([17]; 31 g ai/ha, preemergence) was 98% and the pest or weed control at 62 g/ha ([17]; 62 g ai/ha, preemergence) was 90%. For the same molecule, the pest or weed control at 125 g/ha ([17]; 125 g ai/ha, preemergence) was 98%, the pest or weed control at 16 g/ha ([17]; Preemergence, 16 g ai/ha) was 75% and the pest or weed control at 31 g/ha ([18]; 31 g ai/ha, preemergence, scale 0 to 100) was 75%. For the same molecule, the pest or weed control at 62 g/ha ([18]; 62 g ai/ha, preemergence, scale 0 to 100) was 98%, the pest or weed control at 125 g/ha ([18]; 125 g ai/ha, preemergence, scale 0 to 100) was 100% and the pest or weed control at 16 g/ha ([18]; Preemergence, 16 g ai/ha, scale 0 to 100 (0 no effect, 100 complete control)) was 25%. The melting point was 158 to 161 °C.
